Laboratory results reported in PMC5434028, “Structure-based prediction and identification of 4-epimerization activity of phosphate sugars in class II aldolases” (Scientific Reports, 2017).

Target: T1, RhaD (L-rhamnulose-1-phosphate aldolase) (Escherichia coli, UniProt P32169)
T1 sequence (P32169 1-274): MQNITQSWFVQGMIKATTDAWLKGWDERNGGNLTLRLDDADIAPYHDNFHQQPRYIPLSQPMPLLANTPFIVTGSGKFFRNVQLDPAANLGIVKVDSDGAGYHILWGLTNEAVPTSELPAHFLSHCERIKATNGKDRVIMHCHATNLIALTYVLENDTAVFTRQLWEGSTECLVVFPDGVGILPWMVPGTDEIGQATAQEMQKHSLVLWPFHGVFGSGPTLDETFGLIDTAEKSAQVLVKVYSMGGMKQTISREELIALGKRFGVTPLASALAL
Assay: aldol condensation, dephosphorylation, Bio-LC of sorbose and psicose
Type: biochemical
Settings: 50 mM Tris-HCl pH 7.0, 50 °C

Row | Structure (SMILES) | aldol condensation, dephosphorylation, Bio-LC of sorbose and psicose (co-substrate DHAP) | aldol condensation, dephosphorylation, Bio-LC of sorbose and psicose (co-substrate GA)
1 | O=C[C@H](O)CO [GA] | S1P and P1P were condensed from DHAP and GA using RhaD | 
2 | O=C(CO)COP(=O)(O)O [dihydroxyacetone phosphate] |  | S1P and P1P were condensed from DHAP and GA using RhaD
